{
  "source": "patent US11802127B2",
  "about": "“3,4-dihydro-2,7-naphthyridine-1,6(2H,7H)-diones as MEK inhibitors” (Pfizer Inc., priority 2021, dated 2023)",
  "key": {"P-gp (MDR1)": {"molecular_target": "T1, P-gp (MDR1) (Homo sapiens, UniProt P08183)", "T1 construct": "expressed in transfected cells; host or cells: LLC-PK1 (porcine kidney) cells transfected with MDR1", "T1 sequence (P08183 whole entry)": "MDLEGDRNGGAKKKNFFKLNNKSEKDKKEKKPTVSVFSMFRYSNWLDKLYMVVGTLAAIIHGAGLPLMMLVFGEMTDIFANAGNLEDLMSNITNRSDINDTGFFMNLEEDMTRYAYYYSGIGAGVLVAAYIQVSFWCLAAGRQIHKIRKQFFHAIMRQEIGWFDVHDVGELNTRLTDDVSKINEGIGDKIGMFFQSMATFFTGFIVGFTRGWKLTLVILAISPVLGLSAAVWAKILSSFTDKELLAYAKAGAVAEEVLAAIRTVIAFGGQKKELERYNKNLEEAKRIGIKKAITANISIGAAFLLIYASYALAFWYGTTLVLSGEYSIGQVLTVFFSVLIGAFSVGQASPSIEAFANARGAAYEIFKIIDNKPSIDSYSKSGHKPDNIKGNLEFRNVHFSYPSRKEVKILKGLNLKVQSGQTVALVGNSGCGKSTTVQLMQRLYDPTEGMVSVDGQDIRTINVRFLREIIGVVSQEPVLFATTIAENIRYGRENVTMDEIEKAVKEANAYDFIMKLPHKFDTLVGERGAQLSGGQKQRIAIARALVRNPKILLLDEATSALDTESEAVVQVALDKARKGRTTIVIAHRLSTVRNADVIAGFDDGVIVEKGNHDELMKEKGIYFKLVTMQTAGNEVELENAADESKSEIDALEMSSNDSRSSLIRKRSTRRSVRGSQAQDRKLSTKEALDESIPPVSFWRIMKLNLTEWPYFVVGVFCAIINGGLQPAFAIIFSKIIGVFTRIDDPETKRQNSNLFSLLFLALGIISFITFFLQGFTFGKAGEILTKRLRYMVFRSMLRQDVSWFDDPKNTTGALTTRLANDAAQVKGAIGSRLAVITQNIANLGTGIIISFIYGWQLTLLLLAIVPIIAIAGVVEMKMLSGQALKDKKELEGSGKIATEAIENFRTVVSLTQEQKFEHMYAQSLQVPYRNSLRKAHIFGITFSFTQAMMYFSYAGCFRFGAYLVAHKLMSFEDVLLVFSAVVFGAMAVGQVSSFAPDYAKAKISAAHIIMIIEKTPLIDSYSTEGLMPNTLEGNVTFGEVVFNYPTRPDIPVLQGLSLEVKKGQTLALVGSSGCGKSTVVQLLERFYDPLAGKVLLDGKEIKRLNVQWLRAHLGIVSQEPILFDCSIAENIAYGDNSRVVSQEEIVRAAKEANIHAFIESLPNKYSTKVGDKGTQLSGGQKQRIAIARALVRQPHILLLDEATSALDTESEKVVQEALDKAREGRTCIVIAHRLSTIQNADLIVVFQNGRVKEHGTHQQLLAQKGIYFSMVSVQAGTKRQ", "experiment": "Efflux ratio in MDR1 transfected LLC-PK1 cells", "assay_type": "in vitro ADME", "details": "pig, Papp(B−A)/Papp(A−B)", "summary_of_the_method": "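LLC-PK1 cells transfected with MDR1, test article at 1 μM (1% organic), transport measured A→B and B→A over 2 h at 37° C. Monolayer integrity checked with lucifer yellow, compound quantified by LC-MS/MS. Efflux ratio = Papp(B−A)/Papp(A−B).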"}, "[1]": {"experiment": "PK (Free Brain-to-Free Plasma Ratio) (Mouse)", "assay_type": "in vivo", "details": "brain and plasma, male CD-1 mice, oral gavage 10 mg/kg, sampling 2, 4, 8, 12 and 24 hours, (B/P)*(Bfu/Pfu)", "description": "The ability of representative compounds to penetrate the BBB in mice was determined by evaluating the unbound brain-to-unbound plasma (also referred to as free brain-to-free plasma) concentration ratio in male CD-1 mice.\nBrain compound levels were generated from oral mouse PK dosing with typical sampling times of 2, 4, 8, 12 and 24 hours post oral gavage dosing at 10 mg/kg. Brain samples were stored at −20±5° C. prior to analysis. Concentrations of test compound in mouse brain homogenate were determined by liquid chromatography tandem mass spectrometry (LC-MS/MS) following protein precipitation with acetonitrile. A 12-point calibration curve, ranging from 0.5 to 10,000 ng/mL, was prepared in duplicate. A solution of 400 μg/mL of test compound in dimethyl sulfoxide (DMSO) was serially diluted (3-fold) in 100% DMSO, and then 2.5 μL of each standard solution was added to 100 μL of naïve male CD-1 mice brain homogenate. To mimic the extraction in the standard curve, 2.5 μL of DMSO was added to all test samples. Both calibration and test brain homogenate samples were spiked with 10 μL of an IS (1 μg/mL of a structural analog). Brain homogenate was generated by adding 0.75 mL of 4:1 water:MeOH to each brain sample followed by homogenization for 1 minute with bead beater tubes a 6 m/s using an MP Fast Prep-24®. Proteins were precipitated from 100 μL of brain homogenate sample by the addition of 300 μL of acetonitrile. Samples were vortex-mixed for 5 minutes and spun in an Allegra X-12R centrifuge (Beckman Coulter, Fullerton, CA; SX4750A rotor) for 15 min at about 1,500×g at 4° C. A 100 μL aliquot of each supernatant was transferred via a 550 μL Personal Pipettor (Apricot Designs, Monrovia, CA) to 96-well plates and diluted 1:1 with HPLC grade water. The resulting plates were sealed with aluminum for LC-MS/MS analysis.\nBrain-to-plasma ratios were calculated using the concentration of compound measured in the brain divided by the concentration of compound measured in the plasma. Brain-to-plasma ratios were always generated from a single animal and time point. Free brain-to-free plasma ratios were calculated by multiplying the brain-to-plasma ratio by the in vitro brain homogenate free fraction divided by the in vitro plasma free fraction using the following equation: (B/P)*(Bfu/Pfu)."}, "[2]": {"experiment": "MDR1 LLC-PK1 and BCRP MDCKII Permeability Assay: permeability coefficient (Papp)", "assay_type": "in vitro ADME", "details": "MDCK, test article 1 μM, 37° C.", "summary_of_the_method": "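Bidirectional (A to B, B to A) transport of test article (1 μM, 1% organic) across MDR1-transfected LLC-PK1 or BCRP-transfected MDCKII (canine P-gp knockout) monolayers, 2 h at 37° C., 5% CO2, in triplicate. Lucifer yellow monitored monolayer integrity. Concentrations measured by LC-MS/MS against labetalol internal standard.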"}},
  "data": [
    {"smiles": "CSc1ccc(Nc2c3c(cc(=O)n2C)CCN(OCCO)C3=O)c(F)c1", "note": "[Example 6, 8-((2-fluoro-4-(methylthio)phenyl)amino)-2-(2-hydroxyethoxy)-7-methyl-3,4-dihydro-2,7-naphthyridine-1,6(2H,7H)-dione]", "values": [
      {"measurement": "efflux ratio at 2 h, 1 μM", "setting": "P-gp (MDR1)", "value": 3.4},
      {"measurement": "Kp,uu (unbound brain-to-unbound plasma ratio)", "setting": "[1]", "value": "0.88 to 1.26"},
      {"measurement": "Papp at 2 h, 1 μM", "setting": "[2]", "value": 32.1, "unit": "×10⁻⁶ cm/s"}
    ]},
    {"smiles": "Cn1c(Nc2ccc(Br)cc2F)c2c(cc1=O)CCN(OCCO)C2=O", "note": "[Example 7, 8-((4-bromo-2-fluorophenyl)amino)-2-(2-hydroxyethoxy)-7-methyl-3,4-dihydro-2,7-naphthyridine-1,6(2H,7H)-dione]", "values": [
      {"measurement": "efflux ratio at 2 h, 1 μM", "setting": "P-gp (MDR1)", "value": 5.4},
      {"measurement": "Kp,uu (unbound brain-to-unbound plasma ratio)", "setting": "[1]", "value": "0.62 to 1.06"},
      {"measurement": "Papp at 2 h, 1 μM", "setting": "[2]", "value": 34.5, "unit": "×10⁻⁶ cm/s"}
    ]},
    {"smiles": "Cn1c(Nc2ccc(I)cc2F)c2c(cc1=O)CCN(OCCO)C2=O", "note": "[Example 8, 8-((2-fluoro-4-iodophenol)amino)-2-(2-hydroxyethoxy)-7-methyl-3,4-dihydro-2,7-naphthyridine-1,6(2H,7H)-dione]", "values": [
      {"measurement": "efflux ratio at 2 h, 1 μM", "setting": "P-gp (MDR1)", "value": 7.1},
      {"measurement": "Kp,uu (unbound brain-to-unbound plasma ratio)", "setting": "[1]", "value": "1.01 to 16.1"},
      {"measurement": "Papp at 2 h, 1 μM", "setting": "[2]", "value": 34.2, "unit": "×10⁻⁶ cm/s"}
    ]},
    {"smiles": "CCc1ccc(Nc2c3c(cc(=O)n2C)CCN(OCCO)C3=O)c(F)c1", "note": "[Example 14, 8-((4-ethyl-2-fluorophenyl)amino)-2-(2-hydroxyethoxy)-7-methyl-3,4-dihydro-2,7-naphthyridine-1,6(2H,7H)-dione]", "values": [
      {"measurement": "efflux ratio at 2 h, 1 μM", "setting": "P-gp (MDR1)", "value": 2.7},
      {"measurement": "Kp,uu (unbound brain-to-unbound plasma ratio)", "setting": "[1]", "value": "0.57 to 1.58"},
      {"measurement": "Papp at 2 h, 1 μM", "setting": "[2]", "value": 31.1, "unit": "×10⁻⁶ cm/s"}
    ]},
    {"smiles": "Cn1c(Nc2ccc(OC(F)F)cc2F)c2c(cc1=O)CCN(OCCO)C2=O", "note": "[Example 22, 8-((4-(difluoromethoxy)-2-fluorophenyl)amino)-2-(2-hydroxyethoxy)-7-methyl-3,4-dihydro-2,7-naphthyridine-1,6(2H,7H)-dione]", "values": [
      {"measurement": "efflux ratio at 2 h, 1 μM", "setting": "P-gp (MDR1)", "value": 6.2},
      {"measurement": "Kp,uu (unbound brain-to-unbound plasma ratio)", "setting": "[1]", "value": "0.33 to 2.92"},
      {"measurement": "Papp at 2 h, 1 μM", "setting": "[2]", "value": 24.6, "unit": "×10⁻⁶ cm/s"}
    ]},
    {"smiles": "Cc1c2c(c(Nc3ccc(Br)cc3F)n(C)c1=O)C(=O)N(OCCO)CC2", "note": "[Example 36, 8-((4-bromo-2-fluorophenyl)amino)-2-(2-hydroxyethoxy)-5,7-dimethyl-3,4-dihydro-2,7-naphthyridine-1,6(2H,7H)-dione]", "values": [
      {"measurement": "efflux ratio at 2 h, 1 μM", "setting": "P-gp (MDR1)", "value": 2.9},
      {"measurement": "Kp,uu (unbound brain-to-unbound plasma ratio)", "setting": "[1]", "value": "0.83 to 2.09"},
      {"measurement": "Papp at 2 h, 1 μM", "setting": "[2]", "value": 31.1, "unit": "×10⁻⁶ cm/s"}
    ]}
  ]
}
